From patent US20160168155A1, “POLYMORPH OF SYK INHIBITORS” (GILEAD CONNECTICUT, INC., priority 2013, published 2016)
One block for each compound: values may come before it.

What was measured:
[1] = Intrinsic dissolution rate, rotating disk apparatus; assay type: physicochemical
Method: Intrinsic dissolution rate experiments were conducted using a rotating disk apparatus. Disks of drug substance were prepared by directly compressing 100 mg of powder of polymorph Form 3 in a die at a pressure of 2500 psi for 2 minutes using a hydraulic press (Carver Press, Fred Carver, NJ, USA). The exposed surface area for the resulting disk was 0.5 cm^2. A regular USP dissolution apparatus maintained at 37±0.5° C. was used for the dissolution study. Each dissolution vessel contained 500 mL of aqueous dissolution medium of 0.05 N HCl or pH 6.8 20 mM phosphate buffer with 1% cetyltrimetrylammonium bromide (CTAB). The disk holder (die) was half-immersed into the dissolution medium and rotated at 100 rpm. Samples were withdrawn at specified time intervals and analyzed by HPLC.
The dissolution rate (J) of solid per unit surface area may be described by a diffusion model:
Where D is the diffusion coefficient of the solute, h is the diffusion layer thickness during dissolution at the surface of solid, Cs is the saturation solubility of the solid in the dissolution medium, and Cb is its concentration in the bulk medium. Under sink condition (Cs>>Cb) Equation 2 is reduced to: […]
where dissolution rate is directly proportional to the saturated solubility.

[2] = PK study in pentagastrin- or famotidine-pretreated dogs, oral tablets; conditions: famotidine-pretreated dogs, tablet
[3] = Moisture sorption isotherms (Hiden IGASorp / SMS DVS Intrinsic), Example 6B; assay type: physicochemical; conditions: for water uptake up to 90% RH / hygroscopicity: 25° C.; for hygroscopicity: sorption isotherm, 0-90% RH
Method: Sorption isotherms were obtained using a Hiden IGASorp moisture sorption analyser, controlled by CFRSorp software. The sample temperature was maintained at 25° C. by a Huber re-circulating water bath. The humidity was controlled by mixing streams of dry and wet nitrogen, with a total flow rate of 250 ml/min. The relative humidity (RH) was measured by a calibrated Vaisala RH probe (dynamic range of 0-95% RH), located near the sample. The weight change, (mass relaxation) of the sample as a function of % RH was constantly monitored by the microbalance (accuracy ±0.001 mg).
10-20 mg of sample was placed in a tared mesh stainless steel basket under ambient conditions. The sample was loaded and unloaded at 40% RH and 25° C. (typical room conditions).
A moisture sorption isotherm was performed as outlined in Table 1 below (2 scans giving 1 complete cycle). The standard isotherm was performed at 25° C. at 10% RH intervals over a 0-90% RH range.
The software uses a least squares minimization procedure together with a model of the mass relaxation, to predict an asymptotic value. The measured mass relaxation value must be within 5% of that predicted by the software, before the next % RH value is selected. The minimum equilibration time was set to 1 hour and the maximum to 4 hours. Data analysis was carried out using IGASorp Systems Software v 6.50.55. The sample was recovered after completion of the isotherm and re-analyzed by XRPD.
In other cases, sorption isotherms were also obtained using a SMS DVS Intrinsic moisture sorption analyser, controlled by DVS Intrinsic Control software v1.0.1.2 (or v 1.0.1.3). The sample temperature was maintained at 25° C. by the instrument controls. The humidity was controlled by mixing streams of dry and wet nitrogen, with a total flow rate of 200 ml/min. The relative humidity was measured by a calibrated Rotronic probe (dynamic range of 1.0-100% RH), located near the sample. The weight change, (mass relaxation) of the sample as a function of % RH was constantly monitored by the microbalance (accuracy ±0.005 mg).
5-20 mg of sample was placed in a tared mesh stainless steel basket under ambient conditions. The sample was loaded and unloaded at 40% RH and 25° C. (typical room conditions). A moisture sorption isotherm was performed as outlined in Table 2 below (2 scans giving 1 complete cycle). The standard isotherm was performed at 25° C. at 10% RH intervals over a 0-90% RH range. Data analysis was carried out using Microsoft Excel using DVS Analysis Suite v6.2 (or 6.1 or 6.0). The sample was recovered after completion of the isotherm and re-analyzed by XRPD.

[4] = Hygroscopicity by dynamic vapor sorption (Q5000SA), Example 6A; assay type: physicochemical; conditions: for hygroscopicity: 0 to 90% RH
Method: Hygroscopicity of polymorph Form 3 and polymorph Form 7 at 25° C. was determined by dynamic vapor sorption (DVS) using an automated vapor sorption balance (Q5000SA; TA instruments, New Castle, Del.). Hygroscopicity was studied as a function of relative humidity (RH) over the range of 0 to 90%. Approximately 10 mg of solid sample was placed directly onto the 13 mm quartz DVS sample cup and equilibrated at 0% relative humidity (RH) until a constant weight was achieved. After equilibration, the RH was increased in increments of 10% to reach 90%, and the water sorption was monitored. For desorption, the relative humidity was deceased in a similar manner to accomplish a full sorption/desorption cycle.
For all experiments, the instrument was operated in dm/dt mode (mass variation over time) to determine when equilibrium was reached. A fixed dm/dt value of 0.0010% min^−1 was selected for all RH segments. A maximum stage of 360 minutes and a minimum stage of 60 minutes were selected for these experiments.

[5] = DVS, 25° C., listed as Polymorph Form 3
[6] = DVS, 25° C., listed as Polymorph Form 7

Solubility in water (Solubility in water): <0.00005 mg/mL
Intrinsic dissolution rate in pH 1.3 0.05N HCl with 0.9% NaCl ([1]; pH 1.3, rotating disk, 37° C., 100 rpm): 0.00046 mg/min/cm^2
Intrinsic dissolution rate in pH 6.8 20 mM phosphate with 1% CTAB ([1]; pH 6.8, rotating disk, 37° C., 100 rpm, listed as free base of Formula I): no free base was detectable
SMILES: c1cn2cc(-c3ccc4cn[nH]c4c3)nc(Nc3ccc(N4CCOCC4)cc3)c2n1 [Free Base, Compound of Formula I]

Solubility in water (Solubility in water): >100 mg/mL
final pH (Solubility in water; final pH of the water solubility sample): (final pH < 1.5)
increase of AUC0-24 compared to the mono-MSA salt formulation [2]: more than 10 fold
IDR higher than mono MSA ([1]; pH 6.8): 400 fold
Intrinsic dissolution rate in pH 6.8 20 mM phosphate with 1% CTAB ([1]; pH 6.8, rotating disk, 37° C., 100 rpm): 1.2 mg/min/cm^2
water uptake up to 90% RH ([3]; listed as Form 3): ~20 wt. %
solid form after DVS analysis (XRPD) ([3]; sample after DVS analysis): converted to Form 7
hygroscopicity [3]: not hygroscopic
hygroscopicity ([4]; DVS, 25° C.): not observed to be hygroscopic
water adsorption / weight gain at 90% RH [4, 5]: ~28%
solid form after DVS experiment (XRPD) ([4]; sample collected at end of DVS): converted to Form 7
SMILES: c1cn2cc(-c3ccc4cn[nH]c4c3)nc(Nc3ccc(N4CCOCC4)cc3)c2n1 [polymorph Form 3]
hygroscopicity ([3]; listed as Polymorph Form 3): not observed to be hygroscopic at 70% RH and below
hygroscopicity [4, 5]: not observed to be hygroscopic at 70% RH and below

water uptake up to 90% RH ([3]; listed as Polymorph Form 7): ~21 wt. %
solid form below the stable RH interval ([3]; below 30% RH): becomes amorphous
RH interval in which the form is stable ([3]; room temperature): 30-60 % RH
hygroscopicity ([3]; listed as Polymorph Form 7): highly hygroscopic
hygroscopicity [4, 6]: highly hygroscopic
weight gain at 40% RH ([4]; DVS, 25° C., 40% RH): ~10%
water adsorption / weight gain at 90% RH [4, 6]: ~22%
SMILES: c1cn2cc(-c3ccc4cn[nH]c4c3)nc(Nc3ccc(N4CCOCC4)cc3)c2n1 [polymorph Form 7]
